According to patent publication US20250197424A1, “QUINOLINE COMPOUND AND USE THEREOF” (SHANGHAI PHARMACEUTICALS HOLDING CO., LTD., priority 2022, published 2025):
Where a name gives a salt, the structure may show the parent alone.

The compounds below were run against GTP-KRAS-G12D:SOS1 (Homo sapiens (Human), UniProt P01116, G12D) (assay: GTP-KRAS-G12D:SOS1 binding inhibition).
Procedure: The IC50 of the compounds was fitted using a nonlinear regression equation with GraphPad Prism 8. The results are presented in Table 2: • Negative control: DMSO • Positive control: 100 μM BI-2852
The following nonlinear fitting formula was used to obtain the IC50 (half-maximal inhibitory concentration) of the compounds:
[formula] • X: logarithm of the compound concentration • Y: 665/615 Ratio

Sequence of GTP-KRAS-G12D:SOS1 (P01116-2 other isoform, or with tags, fused parts or gaps G12D): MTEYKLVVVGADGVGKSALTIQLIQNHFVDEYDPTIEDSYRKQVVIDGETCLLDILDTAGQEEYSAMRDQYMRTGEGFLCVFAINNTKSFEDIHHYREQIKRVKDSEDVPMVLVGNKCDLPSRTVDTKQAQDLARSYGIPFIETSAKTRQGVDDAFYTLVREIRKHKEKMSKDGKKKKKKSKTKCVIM

SMILES | IC50 [nM]
Oc1cc(-c2c(F)c3c4c(nc(OC[C@@]56CCCN5C[C@H](F)C6)nc4c2F)N2CC4CCC(N4)C2CO3)c2c3c(ccc2c1)CCC3 (single isomer, unassigned) [Compound 14b, 9-((2S or 2R,5aS,6S,9R)-1,3-difluoro-13-(((2R,7aS)-2-fluorotetrahydro-1H-pyrrolizin-7a(5H)-yl)methoxy)-5a,6,7,8,9,10-hexahydro-5H-6,9-epiminoazepino[2′,1′:3,4][1,4]oxazepino[5,6,7-de]quinazolin-2-yl)-2,3-dihydro-1H-cyclopenta[a]naphthalen-7-ol dihydrochloride] | 15.3
CCc1cccc2cc(O)cc(-c3c(F)c4c5c(nc(OC[C@]67C[C@@H](F)CN6C[C@@H](CO)C7)nc5c3F)N3CC5CCC(N5)C3CO4)c12 (single isomer, unassigned) [Compound 23b, 4-((2S or 2R,5aS,6S,9R)-1,3-difluoro-13-(((2R,6S,7aS)-2-fluoro-6-(hydroxymethyl)tetrahydro-1H-pyrrolizin-7a(5H)-yl)methoxy)-5a,6,7,8,9,10-hexahydro-5H-6,9-epiminoazepino[2′,1′:3,4][1,4]oxazepino[5,6,7-de]quinazolin-2-yl)-5-ethylnaphthalen-2-ol dihydrochloride] | 5.75
CCc1cccc2cc(O)cc(-c3c(F)c4c5c(nc(OC[C@@]67CCC8(CC8)N6C[C@H](F)C7)nc5c3F)N3CC5CCC(N5)C3CO4)c12 (single isomer, unassigned) [Compound 20b, 4-((2S or 2R,5aS,6S,9R)-1,3-difluoro-13-(((6′R,7a'S)-6′-fluorotetrahydrospiro[cyclopropane-1,3′-pyrrolizin]-7a′ (5′H)methoxy)-5a,6,7,8,9,10-hexahydro-5H-[6,9]epiminoazepino[2′,1′:3,4][1,4]oxazepino[5,6,7-de]quinazolin-2-yl)-5-ethylnaphthalen-2-oldihydrochloride] | 8.81
Cc1cc(N)nc(-c2c(F)c3c4c(nc(OC[C@@]56CCCN5C[C@H](F)C6)nc4c2F)N2C[C@@H]4CCC(N4)[C@H]2CCO3)c1C(F)(F)F (single isomer, unassigned) [Compound 26b, 6-((2R or 2S, 6aS,7S,10R)-1,3-difluoro-14-(((2R,7aS)-2-fluorotetrahydro-1H-pyrrolizin-7a(5H)-yl)methoxy)-5,6,6a,7,8,9,10,11-octahydro-7,10-epiminoazepino[1′,2′: 5,6][1,5]oxazocino[4,3,2-de]quinazolin-2-yl)-4-methyl-5-(trifluoromethyl)pyridin-2-amine] | 15.7
CCc1cccc2cc(O)cc(-c3c(F)c4c5c(nc(OC[C@@]67CCCN6C[C@H](F)C7)nc5c3F)N3CC5CCC(N5)C3CCO4)c12 (single isomer, unassigned) [Compound 13b, 4-((2R or 2S, 6aS,7S,10R)-1,3-difluoro-14-(((2R,7aS)-2-fluorotetrahydro-1H-pyrrolizin-7a(5H)-yl)methoxy)-5,6,6a,7,8,9,10,11-octahydro-7,10-epiminoazepino[1′,2′: 5,6][1,5]oxazocino[4,3,2-de]quinazolin-2-yl)-5-ethylnaphthalen-2-ol dihydrochloride] | 8930
Nc1cc2ccccc2c(-c2c(F)c3c4c(nc(OC[C@@]56CCCN5C[C@H](F)C6)nc4c2F)N2CC4CCC(N4)C2CO3)n1 (stereo partly drawn) [Compound 22, 1-((5aS,6S,9R)-1,3-Difluoro-13-(((2R,7aS)-2-fluorotetrahydro-1H-pyrrolizin-7a(5H)-yl)methoxy)-5a,6,7,8,9,10-hexahydro-5H-6,9-epiminoazepino[2′,1′:3,4][1,4]oxazepino[5,6,7-de]quinazolin-2-yl) isoquinolin-3-amine] | 13.4
CCc1cccc2cc(O)cc(-c3c(F)c4c5c(nc(OC[C@]67C[C@@H](F)CN6C[C@@H](CN6CCOCC6)C7)nc5c3F)N3CC5CCC(N5)C3CO4)c12 (single isomer, unassigned) [Compound 28b, 4-((2S or 2R,5aS,6S,9R)-1,3-difluoro-13-(((2R,6R,7aS)-2-fluoro-6-(morpholinomethyl)tetrahydro-1H-pyrrolizin-7a(5H)-yl)methoxy)-5a,6,7,8,9,10-hexahydro-5H-6,9-epiminoazepino[2′,1′:3,4][1,4]oxazepino[5,6,7-de]quinazolin-2-yl)-5-ethylnaphthalen-2-ol trihydrochloride] | 15.2
CCc1cccc2cc(O)cc(-c3c(F)c4c5c(nc(OC[C@]67C[C@@H](F)CN6C[C@H](CO)C7)nc5c3F)N3CC5CCC(N5)C3CO4)c12 (single isomer, unassigned) [Compound 21b, 4-((2S or 2R,5aS,6S,9R)-1,3-difluoro-13-(((2R,6R,7aS)-2-fluoro-6-(hydroxymethyl)tetrahydro-1H-pyrrolizin-7a(5H)-yl)methoxy)-5a,6,7,8,9,10-hexahydro-5H-6,9-epiminoazepino[2′,1′:3,4][1,4]oxazepino[5,6,7-de]quinazolin-2-yl)-5-ethylnaphthalen-2-ol dihydrochloride] | 7.21
CCc1cccc2cc(O)cc(-c3c(F)c4c5c(nc(OC[C@]67C[C@@H](F)CN6C[C@@H](OC)C7)nc5c3F)N3CC5CCC(N5)C3CO4)c12 (single isomer, unassigned) [Compound 16b, 4-((2S or 2R,5aS,6S,9R)-1,3-difluoro-13-(((2R,6S,7aS)-2-fluoro-6-methoxytetrahydro-1H-pyrrolizin-7a(5H)-yl)methoxy)-5a,6,7,8,9,10-hexahydro-5H-6,9-epiminoazepino[2′, l′: 3,4][1,4]oxazepino[5,6,7-de]quinazolin-2-yl)-5-ethylnaphthalen-2-ol dihydrochloride] | 7.55
Cc1cc(N)nc(-c2c(F)c3c4c(nc(OC[C@@]56CCCN5C[C@H](F)C6)nc4c2F)N2CC4CCC(N4)C2CO3)c1C(F)(F)F (single isomer, unassigned) [10a′, (S or R)-6-((5aS,6S,9R)-1,3-Difluoro-13-(((2R,7aS)-2-fluorotetrahydro-1H-pyrrolizin-7a(5H)-yl)methoxy)-5a,6,7,8,9,10-hexahydro-5H-6,9-epiminoazepino[2′,1′:3,4][1,4]oxazepino[5,6,7-de]quinazolin-2-yl)-4-methyl-5-(trifluoromethyl)pyridin-2-amine] | 700
Cc1cc(N)nc(-c2c(F)c3c4c(nc(OC[C@@]56CCCN5C[C@H](F)C6)nc4c2F)N2CC4CCC(N4)C2CO3)c1C(F)(F)F (single isomer, unassigned) [10b′, (R or S)-6-((5aS,6S,9R)-1,3-difluoro-13-(((2R,7aS)-2-fluorotetrahydro-1H-pyrrolizin-7a(5H)-yl)methoxy)-5a,6,7,8,9,10-hexahydro-5H-6,9-epiminoazepino[2′,1′:3,4][1,4]oxazepino[5,6,7-de]quinazolin-2-yl)-4-methyl-5-(trifluoromethyl)pyridin-2-amine] | 11.7
CCc1cccc2cc(O)cc(-c3c(F)c4c5c(nc(OC[C@]67C[C@@H](F)CN6C[C@@H](CN6CCN(C)CC6)C7)nc5c3F)N3CC5CCC(N5)C3CO4)c12 (single isomer, unassigned) [Compound 29b, 4-((2R or 2S, 5aS,6S,9R)-1,3-difluoro-13-(((2R,6R,7aS)-2-fluoro-6-((4-methylpiperazin-1-yl)methyl)tetrahydro-1H-pyrrolizin-7a(5H)-yl)methoxy)-5a,6,7,9,10-hexahydro-5H-6,9-epiminoazepino[2′,1′:3,4][1,4]oxazepino[5,6,7-de]quinazolin-2-yl)-5-ethylnaphthalen-2-ol tetrahydrochloride] | 15.7
